This note sets out measurements from ChEMBL document CHEMBL5038605, “Probing the Allosteric Inhibition Mechanism of a Spike Protein Using Molecular Dynamics Simulations and Active Compound Identifications” (J Med Chem, 2022).

The source made the active and inactive calls. The rule behind the calls is not given here.

The test system of the first test is SARS-CoV-2. Description: Antiviral activity against SARS-CoV-2 infected in vero E6 cells assessed as inhibition of viral replication at 100 uM preincubated for 1 hr followed by viral infection for 24 hrs by qRT-PCR analysis. The class given is functional, organism-based. The settings on record: Severe acute respiratory syndrome coronavirus 2, Vero C1008, time 25.0 hrs. For orientation: Quantitative PCR measures a nucleic acid by following its amplification.
For the compound `Cc1ccc2nc(C34CC5CC(CC(C5)C3)C4)cc(C(=O)O)c2c1`, the result was Active.
In the case of `O=C(O)c1cccc(-c2ccc(CNCCc3ccccc3)o2)c1`, the result was Active.
Consider `CC(=O)N1CCN(c2nc(C)cc(Nc3ccccc3)n2)CC1`, for which the result was Active.
`Cc1nn(-c2ccccc2)c(Oc2ccccc2)c1CCC(=O)Nc1ccccc1`: the outcome was Active.
On the same count and under the same terms, the entry for `CCn1ccc(-c2nc(C)nn2-c2cc(S(N)(=O)=O)ccc2F)cc1=O` is “Active”.
For the compound `O=C(O)c1ccc(OCc2cccc3ccccc23)cc1`, the result was Active.
As to `Cn1cc(-c2cc3n(n2)CCC(=O)N3CC(=O)NCc2ccco2)c2ccccc21`, the outcome was Active.

The subject of another test is SARS-CoV-2. Description: Antiviral activity against SARS-CoV-2 infected in vero E6 cells assessed as inhibition of viral replication at 100 uM preincubated for 1 hr followed by viral infection for 2 hrs by qRT-PCR analysis. It is filed as functional, organism-based. The conditions noted are these: Severe acute respiratory syndrome coronavirus 2, Vero C1008, time 3.0 hrs.
Consider `O=C(O)c1cccc(-c2ccc(CNCCc3ccccc3)o2)c1`, for which the result was Active.
